From patent US20230045421A1 (priority 2018, published 2023) come the findings set out here.

The structures appear in SMILES notation.

For orientation: EC50 means the concentration at which the effect is half-maximal.

The test system of the first assay is HBV rcDNA. Description: HepDE19 assay with bDNA quantitation of HBV rcDNA. It is filed as cell-based, hepatitis B virus. The conditions noted are these: HepDE19 assay, inhibition of formation of rcDNA; read-out: DE-19bDNA EC50. In a few lines:
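Compounds, top concentration 25 μM in 8-point duplicate series, were applied to Tet-free HepDE19 cultures for 7 days. Branched-DNA quantitation of HBV rcDNA against untreated wells gave EC50 and EC90 by 4-parameter fit. Viability (CC50) came from ATP luminescence on parallel plates incubated 4 days.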
As to `CC(=O)NCCN(C(=O)Nc1ccc(F)c(Cl)c1)C(C)c1c[nH]c(=O)c2ccccc12` (single isomer, unassigned) [Compound 138, N-(2-(3-(3-Chloro-4-fluorophenyl)-1-(1-(1-oxo-1,2-dihydroisoquinolin-4-yl)ethyl)ureido)ethyl)acetamide], the EC50 was 19 µM.
On to `CNC(=O)CCN(C(=O)Nc1ccc(F)c(Cl)c1)C(C)c1c[nH]c(=O)c2ccccc12` (single isomer, unassigned) [Compound 118, 3-(3-(3-Chloro-4-fluorophenyl)-1-(1-(1-oxo-1,2-dihydroisoquinolin-4-yl)ethyl)ureido)-N-methylpropanamide], for which the concentration giving a half-maximal response (EC50) is 0.14 µM.
`CC(=O)N1CCC(CN(C(=O)Nc2ccc(F)c(Cl)c2)C(C)c2c[nH]c(=O)c3ccccc23)CC1` (single isomer, unassigned) [Compound 201, 1-((1-Acetylpiperidin-4-yl)methyl)-3-(3-chloro-4-fluorophenyl)-1-(1-(1-oxo-1,2-dihydroisoquinolin-4-yl)ethyl)urea]: the EC50 is 0.22 µM.
The same measure, in the same setting: the figure for `CC(c1cnc(OCc2nc[nH]n2)c2ccccc12)N(C)C(=O)Nc1ccc(F)c(Cl)c1` (single isomer, unassigned) [Compound 146, 1-(1-(1-((1H-1,2,4-Triazol-3-yl)methoxy)isoquinolin-4-yl)ethyl)-3-(3-chloro-4-fluorophenyl)-1-methylurea] is 0.05 µM.
The same measure, in the same setting: the value for `CCN(C(=O)Nc1ccc(F)c(Cl)c1)C(C)c1c[nH]c(=O)c2ccccc12` (single isomer, unassigned) [Compound 24, 3-(3-Chloro-4-fluorophenyl)-1-ethyl-1-(1-(1-oxo-1,2-dihydroisoquinolin-4-yl)ethyl)urea] was 3.2 µM; that for `CC(c1cnc(OCc2nc[nH]n2)c2ccccc12)N(C)C(=O)Nc1ccc(F)c(Cl)c1` (single isomer, unassigned) [Compound 145, 1-(1-(1-((1H-1,2,4-Triazol-3-yl)methoxy)isoquinolin-4-yl)ethyl)-3-(3-chloro-4-fluorophenyl)-1-methylurea] was 4.2 µM.
The same measure, in the same setting: the figure for `CC(c1cn(Cc2nc[nH]n2)c(=O)c2ccccc12)N(C)C(=O)Nc1ccc(F)c(Cl)c1` (single isomer, unassigned) [Compound 270, 1-(1-(2-((1H-1,2,4-Triazol-3-yl)methyl)-1-oxo-1,2-dihydroisoquinolin-4-yl)ethyl)-3-(3-chloro-4-fluorophenyl)-1-methylurea] is 22 µM.

The same assay, now with this note: HepDE19 assay, inhibition of formation of relaxed circular DNA (rcDNA), bDNA quantitation; read-out: DE-19bDNA EC50.
Take `CC(c1c[nH]c(=O)c2cc(F)c(F)cc12)N(C)C(=O)Nc1cc(F)c(F)c(F)c1` (single isomer, unassigned) [Compound 414, 1-(1-(6,7-Difluoro-1-oxo-1,2-dihydroisoquinolin-4-yl)ethyl)-3-(3,4,5-trifluorophenyl)-1-methylurea]: the concentration giving a half-maximal response (EC50) was 4.8 µM.
On the same count and under the same terms, the value for `CC(c1c[nH]c(=O)c2ccc(F)cc12)N(CC(CO)CO)C(=O)Nc1ccc(F)c(Cl)c1` (single isomer, unassigned) [Compound 295, 3-(3-Chloro-4-fluorophenyl)-1-(1-(6-fluoro-1-oxo-1,2-dihydroisoquinolin-4-yl)ethyl)-1-(3-hydroxy-2-(hydroxymethyl)propyl)urea] was 1.9 µM.
On the same count and under the same terms, the value for `CC(c1c[nH]c(=O)c2cc(F)c(F)cc12)N(C)C(=O)NCc1cc(F)c(F)c(F)c1` (single isomer, unassigned) [Compound 481, 1-(1-(6,7-Difluoro-1-oxo-1,2-dihydroisoquinolin-4-yl)ethyl)-1-methyl-3-(3,4,5-trifluorobenzyl)urea] was 0.53 µM; that for `CC(c1c[nH]c(=O)c2cc(F)c(F)cc12)N(C)C(=O)Nc1cc(Cl)c(F)c(Cl)c1` (single isomer, unassigned) [Compound 439, 3-(3,5-Dichloro-4-fluorophenyl)-1-(1-(6,7-difluoro-1-oxo-1,2-dihydroisoquinolin-4-yl)ethyl)-1-methylurea] was 0.12 µM; that for `Cc1cc(NC(=O)N(C)C(C)c2c[nH]c(=O)c3c(F)c(F)ccc23)ccc1F` (single isomer, unassigned) [Compound 441, 1-(1-(7,8-Difluoro-1-oxo-1,2-dihydroisoquinolin-4-yl)ethyl)-3-(4-fluoro-3-methylphenyl)-1-methylurea] was 0.008 µM.
Still for that read-out and setting: the value for `CC(c1c[nH]c(=O)c2c(F)cccc12)N(C)C(=O)Nc1ccc(F)c(Cl)c1` (single isomer, unassigned) [Compound 357, 3-(3-Chloro-4-fluorophenyl)-1-(1-(8-fluoro-1-oxo-1,2-dihydroisoquinolin-4-yl)ethyl)-1-methylurea] was 0.04 µM; that for `CC(C)CN(C(=O)Nc1ccc(F)cc1)C(C)c1c[nH]c(=O)c2cc(F)c(F)cc12` (single isomer, unassigned) [Compound 288, 1-(1-(6,7-Difluoro-1-oxo-1,2-dihydroisoquinolin-4-yl)ethyl)-3-(4-fluorophenyl)-1-isobutylurea] was 0.004 µM; that for `CC(c1c[nH]c(=O)c2c(F)c(F)ccc12)N(C)C(=O)Nc1ccc(F)cc1` (single isomer, unassigned) [Compound 432, 1-(1-(7,8-Difluoro-1-oxo-1,2-dihydroisoquinolin-4-yl)ethyl)-3-(4-fluorophenyl)-1-methylurea] was 11.2 µM.
Consider `CC(c1cnc(C#N)c2ccccc12)N(C)C(=O)Nc1ccc(F)c(Cl)c1` (single isomer, unassigned) [Compound 337, 3-(3-Chloro-4-fluorophenyl)-1-(1-(1-cyanoisoquinolin-4-yl)ethyl)-1-methylurea], for which the EC50 was determined as 0.25 µM.
On the same count and under the same terms, the value for `CC(c1c[nH]c(=O)c2cc(F)c(F)cc12)N(C)C(=O)Nc1ccc(F)cc1` (single isomer, unassigned) [Compound 286, 1-(1-(6,7-Difluoro-1-oxo-1,2-dihydroisoquinolin-4-yl)ethyl)-3-(4-fluorophenyl)-1-methylurea] was 0.02 µM.

Staying with this assay, now noted: Hepatitis B virus, HepDE19, HepDE19 assay, inhibition of formation of rcDNA; read-out: DE-19bDNA EC50.
For `COc1ncc([C@@H](C)N(CC(F)(F)F)C(=O)Nc2ccc(F)c(Cl)c2)c2ccccc12` [Compound 101, (R)-3-(3-Chloro-4-fluorophenyl)-1-(1-(1-methoxyisoquinolin-4-yl)ethyl)-1-(2,2,2-trifluoroethyl)urea], the EC50 amounted to 0.42 µM.
On the same count and under the same terms, the value for `CC(c1cn(CCCO)c(=O)c2ccccc12)N(C)C(=O)Nc1ccc(F)c(Cl)c1` (single isomer, unassigned) [Compound 206, 3-(3-Chloro-4-fluorophenyl)-1-(1-(2-(3-hydroxypropyl)-1-oxo-1,2-dihydroisoquinolin-4-yl)ethyl)-1-methylurea] was 0.85 µM.
The same measure, in the same setting: the figure for `CC(c1c[nH]c(=O)c2ccccc12)N(CCCN)C(=O)Nc1ccc(F)c(Cl)c1` (single isomer, unassigned) [Compound 164, 1-(3-Aminopropyl)-3-(3-chloro-4-fluorophenyl)-1-(1-(1-oxo-1,2-dihydroisoquinolin-4-yl)ethyl)urea] is 12 µM.
On to `CNC(=O)CCN(C(=O)Nc1ccc(F)c(Cl)c1)C(C)c1c[nH]c(=O)c2ccccc12` (racemic) [Compound 104, 3-(3-(3-chloro-4-fluorophenyl)-1-(1-(1-oxo-1,2-dihydroisoquinolin-4-yl)ethyl)ureido)-N-methylpropanamide], for which the EC50 came out at 0.57 µM.

The assay is the same for the next values; noted with them: Hepatitis B virus, HepDE19, HepDE19 assay, inhibition of formation of relaxed circular DNA (rcDNA), bDNA quantitation; read-out: DE-19bDNA EC50.
On to `CC(c1c[nH]c(=O)c2ccccc12)N(C)C(=O)NC1CCCC1` (single isomer, unassigned) [Compound 299, 3-Cyclopentyl-1-methyl-1-(1-(1-oxo-1,2-dihydroisoquinolin-4-yl)ethyl)urea], for which the half-maximal effective concentration (EC50) is 8.6 µM.

Staying with this assay, now noted: Hepatitis B virus, HepDE19, read-out: DE-19bDNA EC50 (μM), HepDE19 assay, inhibition of formation of relaxed circular DNA (rcDNA), bDNA quantitation.
Regarding `C[C@H](c1c[nH]c(=O)c2ccccc12)N(C)C(=O)Nc1ccc(Cl)cc1` [Compound 293, (R)-3-(4-Chlorophenyl)-1-methyl-1-(1-(1-oxo-1,2-dihydroisoquinolin-4-yl)ethyl)urea], the concentration for a half-maximal effect (EC50) came to 0.34 µM.
Take `[2H]C([2H])([2H])N(C(=O)Nc1cccc(Cl)c1)C(C)c1c[nH]c(=O)c2c(F)c(F)ccc12` (single isomer, unassigned) [Compound 474, 3-(3-Chlorophenyl)-1-(1-(7,8-difluoro-1-oxo-1,2-dihydroisoquinolin-4-yl)ethyl)-1-(methyl-d3)urea]: the EC50 was found to be 0.015 µM.

Still in this assay, the particulars now being: read-out: DE-19bDNA EC50; HepDE19 assay, inhibition of formation of rcDNA.
Turning to `CCC(c1c[nH]c(=O)c2ccccc12)N(CC)C(=O)Nc1ccc(F)c(Cl)c1` (single isomer, unassigned) [Compound 37, 3-(3-chloro-4-fluorophenyl)-1-ethyl-1-(1-(1-oxo-1,2-dihydroisoquinolin-4-yl)propyl)urea], the EC50 worked out at 0.26 µM.
The same measure, in the same setting: the value for `CCN(C(=O)Nc1ccc(F)c(Cl)c1)C(c1c[nH]c(=O)c2ccccc12)C1CC1` (single isomer, unassigned) [Compound 49, 3-(3-Chloro-4-fluorophenyl)-1-(cyclopropyl(1-oxo-1,2-dihydroisoquinolin-4-yl)methyl)-1-ethylurea] was 0.5 µM.

The assay is the same for the next values; noted with them: read-out: DE-19bDNA EC50; HepDE19 assay, inhibition of formation of relaxed circular DNA (rcDNA), bDNA quantitation.
Take `CC(c1c[nH]c(=O)c2c(F)c(F)ccc12)N(C)C(=O)Nc1cccc(Cl)c1` (single isomer, unassigned) [Compound 460, 3-(3-Chlorophenyl)-1-(1-(7,8-difluoro-1-oxo-1,2-dihydroisoquinolin-4-yl)ethyl)-1-methylurea]: the EC50 was determined as 0.61 µM.
Still for that read-out and setting: the value for `CC(c1c[nH]c(=O)c2cc(F)c(F)cc12)N(C)C(=O)Nc1cccc(Cl)c1` (single isomer, unassigned) [Compound 412, 1-(1-(6,7-Difluoro-1-oxo-1,2-dihydroisoquinolin-4-yl)ethyl)-3-(3-chlorophenyl)-1-methylurea] was 1.9 µM.
